Here are results for 3 compounds from ChEMBL document CHEMBL1139487, “Discovery of corticotropin releasing factor 2 receptor selective sauvagine analogues for treatment of skeletal muscle atrophy” (J Med Chem, 2005).

For test [1], the system named is Mus musculus. The experiment in a line: In vivo percentage inhibition against casting induced tibialis anterior mass loss in mouse at a dosage of 30 ug/kg/day. In kind it is functional.
Test [2] deals with Mus musculus. Kind of test: In vivo percentage inhibition against casting induced tibialis anterior mass loss in mouse at a dosage of 100 ug/kg/day. The class given is functional.
Test [3] relates to Mus musculus. The experiment in a line: In vivo percentage inhibition against casting induced tibialis anterior mass loss in mouse at a dosage of 300 ug/kg/day. In kind it is functional. To be noted: read-out: Inhibition.
Test [4] deals with T1, Corticotropin-releasing factor receptor 1 (Mus musculus, UniProt P35347).
T1 sequence (P35347 whole entry): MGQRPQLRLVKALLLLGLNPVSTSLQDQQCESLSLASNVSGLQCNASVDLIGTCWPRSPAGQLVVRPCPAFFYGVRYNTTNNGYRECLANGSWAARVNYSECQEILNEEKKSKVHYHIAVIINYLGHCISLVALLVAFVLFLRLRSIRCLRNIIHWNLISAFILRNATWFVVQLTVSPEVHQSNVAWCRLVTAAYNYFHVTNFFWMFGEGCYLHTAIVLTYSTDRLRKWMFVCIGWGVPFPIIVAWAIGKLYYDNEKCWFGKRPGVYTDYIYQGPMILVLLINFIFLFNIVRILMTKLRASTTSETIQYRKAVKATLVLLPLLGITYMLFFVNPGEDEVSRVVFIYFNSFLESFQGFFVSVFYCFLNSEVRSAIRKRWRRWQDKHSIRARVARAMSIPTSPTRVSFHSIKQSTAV
Kind of test: In vitro effective concentration for mouse corticotropin releasing factor 1 receptor.

Test [5] has as its target Corticotropin-releasing factor receptor 2 (Mus musculus, UniProt Q60748). Kind of test: In vitro effective concentration for mouse corticotropin releasing factor 2 receptor.
The target in test [6] is T2, Corticotropin-releasing factor receptor 1 (Mus musculus) (UniProt P35347).
T2 sequence (whole entry): T1 sequence (P35347 whole entry)
The experiment in a line: In vitro agonistic activity against mouse corticotropin releasing factor 1 receptor. In kind it is functional.

The target in test [7] is Corticotropin-releasing factor receptor 2 (Mus musculus) (UniProt Q60748). The experiment in a line: In vitro agonistic activity against mouse corticotropin releasing factor 2 receptor. In kind it is functional.
For test [8], the species on record is Mus musculus. The experiment in a line: Selectivity ratio of EC50s for mouse corticotropin releasing factor receptors 1 and 2.

A value given as a limit tells only on which side of the number the result lay.

Sequence of Corticotropin-releasing factor receptor 2 (Mus musculus) (Q60748 whole entry): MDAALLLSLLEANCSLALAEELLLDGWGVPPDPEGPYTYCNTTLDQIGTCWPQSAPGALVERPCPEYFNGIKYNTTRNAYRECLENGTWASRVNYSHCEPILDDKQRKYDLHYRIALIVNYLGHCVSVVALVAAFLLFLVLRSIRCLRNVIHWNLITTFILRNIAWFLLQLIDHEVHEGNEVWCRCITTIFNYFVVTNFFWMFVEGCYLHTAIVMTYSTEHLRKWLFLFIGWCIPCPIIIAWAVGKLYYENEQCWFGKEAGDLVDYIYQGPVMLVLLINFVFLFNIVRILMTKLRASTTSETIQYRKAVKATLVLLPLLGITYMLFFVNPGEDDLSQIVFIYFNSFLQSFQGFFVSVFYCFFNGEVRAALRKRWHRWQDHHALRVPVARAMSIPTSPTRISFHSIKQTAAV
Sequence of Corticotropin-releasing factor receptor 2 (Q60748 whole entry): as above

What is called EC50 is the concentration needed to bring the measured effect to its halfway point. A low value points to an effect from little substance. What is called Emax is the maximal effect, on the per cent scale that the assay sets. The compound `CC[C@H](C)[C@H](NC(=O)[C@@H](NC(=O)[C@H](CC(=O)O)NC(=O)[C@H](CC(C)C)NC(=O)[C@H](CC(C)C)NC(=O)[C@H](CC(C)C)NC(=O)[C@H](CCCN=C(N)N)NC(=O)[C@H](CC(N)=O)NC(=O)[C@H](CC(N)=O)NC(=O)[C@H](C)NC(=O)[C@H](C)NC(=O)[C@H](CCC(N)=O)NC(=O)[C@H](CCC(N)=O)NC(=O)[C@H](CCCCN)NC(=O)[C@H](CCC(=O)O)NC(=O)[C@H](CCCCN)NC(=O)[C@H](CCC(=O)O)NC(=O)[C@H](CCC(N)=O)NC(=O)[C@H](CCCCN)NC(=O)[C@H](CCC(=O)O)NC(=O)[C@@H](NC(=O)[C@H](CCC(=O)O)NC(=O)[C@@H](NC(=O)[C@H](CCSC)NC(=O)[C@H](CCCCN)NC(=O)[C@H](CCCN=C(N)N)NC(=O)[C@H](CC(C)C)NC(=O)[C@H](CC(C)C)NC(=O)[C@H](Cc1ccc(O)cc1)NC(=O)[C@@H](NC(=O)[C@@H]1CCCN1C(=O)[C@H](CC(C)C)NC(=O)[C@H](CC(=O)O)NC(=O)[C@@H](NC(=O)[C@H](CO)NC(=O)[C@@H](NC(=O)[C@@H]1CCCN1C(=O)[C@@H]1CCCN1C(=O)CNC(=O)[C@@H]1CCC(=O)N1)[C@@H](C)CC)[C@@H](C)CC)[C@@H](C)O)[C@@H](C)CC)[C@@H](C)CC)[C@@H](C)O)C(=O)O` returned an inhibition in vivo at 0.03 mg/kg/day with Mus musculus [1] of 3%. In the test with Mus musculus [2], this compound displayed an inhibition in vivo at 0.1 mg/kg/day of 25%. In the test with Mus musculus [3], the inhibition in vivo at 0.3 mg/kg/day stood at 59%. Besides, the 50% effective concentration (EC50) in test [4] is > 1000 nM; in test [5], 18.2 nM. Besides, the Emax in test [6] was 48%; in test [7], 82%. In addition, in the test filed under Mus musculus [8], the Selectivity is > 55.

For the compound `CC[C@H](C)[C@H](NC(=O)[C@@H](NC(=O)[C@H](CC(=O)O)NC(=O)[C@H](CC(C)C)NC(=O)[C@H](CC(C)C)NC(=O)[C@H](CC(C)C)NC(=O)[C@H](CCCN=C(N)N)NC(=O)[C@H](CC(N)=O)NC(=O)[C@H](CC(N)=O)NC(=O)[C@H](C)NC(=O)[C@H](C)NC(=O)[C@H](CCC(N)=O)NC(=O)[C@H](CCC(N)=O)NC(=O)[C@H](CCCCN)NC(=O)[C@H](CCC(=O)O)NC(=O)[C@H](CCCCN)NC(=O)[C@H](CCC(=O)O)NC(=O)[C@H](CCC(N)=O)NC(=O)[C@H](CCCCN)NC(=O)[C@H](CCC(=O)O)NC(=O)[C@@H](NC(=O)[C@H](CCC(=O)O)NC(=O)[C@@H](NC(=O)[C@H](CCSC)NC(=O)[C@H](CCCCN)NC(=O)[C@H](CCCN=C(N)N)NC(=O)[C@H](CC(C)C)NC(=O)[C@H](CC(C)C)NC(=O)[C@H](CCC(N)=O)NC(=O)[C@H](Cc1ccccc1)NC(=O)[C@@H]1CCCN1C(=O)[C@H](CC(C)C)NC(=O)[C@H](CC(=O)O)NC(=O)[C@@H](NC(=O)[C@H](CO)NC(=O)[C@@H](NC(=O)[C@@H]1CCCN1C(=O)[C@@H]1CCCN1C(=O)CNC(=O)[C@@H]1CCC(=O)N1)[C@@H](C)CC)[C@@H](C)CC)[C@@H](C)CC)[C@@H](C)CC)[C@@H](C)O)C(=O)O`, in the test on Mus musculus [1], the inhibition in vivo at 0.03 mg/kg/day came to 58%. For the same compound, the inhibition in vivo at 0.1 mg/kg/day in the test with Mus musculus [2] came out at 46%. Further, the inhibition in vivo at 0.3 mg/kg/day in the test with Mus musculus [3] amounted to 50%. Also, the results for the maximal effect (Emax) in test [6] and in test [7] were 64% and 100%, respectively. The Selectivity in the test listed under Mus musculus [8] amounted to 62.

In turn, `CC[C@H](C)[C@H](NC(=O)[C@@H](NC(=O)[C@H](CC(=O)O)NC(=O)[C@H](CC(C)C)NC(=O)[C@H](CC(C)C)NC(=O)[C@H](CC(C)C)NC(=O)[C@H](CCCN=C(N)N)NC(=O)[C@H](CC(N)=O)NC(=O)[C@H](CC(N)=O)NC(=O)[C@H](C)NC(=O)[C@H](C)NC(=O)[C@H](CCC(N)=O)NC(=O)[C@H](CCC(N)=O)NC(=O)[C@H](CCCCN)NC(=O)[C@H](CCC(=O)O)NC(=O)[C@H](CCCCN)NC(=O)[C@H](CCC(=O)O)NC(=O)[C@H](CCC(N)=O)NC(=O)[C@H](CCCCN)NC(=O)[C@H](CCC(=O)O)NC(=O)[C@@H](NC(=O)[C@H](CCC(=O)O)NC(=O)[C@@H](NC(=O)[C@H](CCSC)NC(=O)[C@H](CCCCN)NC(=O)[C@H](CCCN=C(N)N)NC(=O)[C@H](CC(C)C)NC(=O)[C@H](CC(C)C)NC(=O)[C@H](Cc1ccc(O)cc1)NC(=O)[C@@H](NC(=O)[C@@H]1CCCN1C(=O)[C@H](CC(C)C)NC(=O)[C@H](CC(=O)O)NC(=O)[C@@H](NC(=O)[C@H](CO)NC(=O)[C@@H](NC(=O)[C@@H]1CCCN1C(=O)[C@@H]1CCCN1C(=O)CNC(=O)[C@@H]1CCC(=O)N1)[C@@H](C)CC)[C@@H](C)CC)[C@@H](C)CC)[C@@H](C)CC)[C@@H](C)CC)[C@@H](C)O)C(=O)O` gave an inhibition in vivo at 0.03 mg/kg/day with Mus musculus [1] of 24%. The compound further displayed an inhibition in vivo at 0.1 mg/kg/day in the test on Mus musculus [2] of 38%. Further, the inhibition in vivo at 0.3 mg/kg/day in the test on Mus musculus [3] turned out to be 58%. Further, the Emax in test [6] worked out at 8%; in test [7], 100%. For the same compound, in the test filed under Mus musculus [8], the Selectivity is > 45.
